Source: patent US7229785B2, “Fluorescence technique for on-line monitoring of state of hydrogen-producing microorganisms” (priority 2002, dated 2007)

Key:
[1] = tested on: C. reinhardtii cells; test: Inhibitor (KCN, SHAM) effect on rates of dark respiration during sulfur deprivation, Clark electrode; format: cell-based, Chlamydomonas reinhardtii; conditions: SHAM 4 mM, 5 min, 17% O2
Description: To determine the precise moment of H2-photoproduction onset, we measured the percentage of H2 contained in the gas phase (˜7 ml) on the top of the vessel immediately after anaerobiosis by gas chromatography. The dissolved O2 and redox potential of the medium were also measured. Chlorophyll concentrations were then obtained spectrophotometrically in 95% ethanol cell extracts. The capacity for respiratory O2 consumption was measured with a Clark electrode at 25° C. under aerobic conditions (17% or 170 μM O2) after removing the samples from the culture vessel and equilibrating them with air for 5 minutes.
The PQ pool is further oxidized by dissolved O2 through the action of PQ-oxidase. In the mitochondria, NADH and FADH2 generated by the Krebs Cycle serve as the source of electrons for a membrane-bound electron transport chain with O2 as the final electron acceptor. The cytochrome oxidase transduces the production of 3 ATP molecules per pair of electrons transported. […]. In both cases, O2 is the terminal electron acceptor. The mitochondrial cytochrome oxidase in C reinhardtii is inhibited by KCN, carbon monoxide, and sodium azide, while the alternative oxidase is specifically affected by salicylic hydroxamic acid (SHAM). The putative chloroplast PQ oxidase, on the other hand, is not inhibited by SHAM and only slightly affected by KCN. By measuring the influence of two inhibitors, KCN and SHAM, on the rates of dark respiration, we tried to estimate the relative contributions of each of the three oxidases at different times after sulfur deprivation. The actual contributions of the three oxidases to the scavenging O2 in situ depend on many factors such as their relative KM's for O2 and the rate of diffusion of O2 from the chloroplast to the mitochondria. Thus, the inhibitor studies that follow may not directly reflect the actual situation in the photobioreactor, but they do indicate that changes in the relative contribution of the three oxidases occur over the course of sulfure deprivation.
Contributions to the mitochondrial cytochrome oxidase [CO], mitochondrial alternative oxidase [AO], and chlororespiration [CR] to the total respiration rate of C. reinhardtii cells are also shown during sulfur-deprivation. […].

[2] = tested on: sulfur-depleted C. reinhardtii cells; test: Effect of DCMU on the rate of H2 photoproduction by sulfur-depleted algal cultures; format: cell-based, Chlamydomonas reinhardtii; conditions: 10 μM DCMU added to culture after H2 gas production has started
Description: […]. DCMU was added to treated cells at the arrow. Time zero in this case represents the time after H2 photoproduction starts.
Chlamydomonas reinhardtii strain Dangeard C137+ was grown in Tris-acetate-phosphate (TAP) medium (pH, 7.0) under continuous cool-white fluorescent light. Late-log cells were pelleted three times by centrifiguation and re-suspended in the same medium, from which inorganic sulfure (TAP-S) was omitted. The cells were incubated under continuous fluorescent illumation (200-250 μE m^−2 s^−1 PAR) in cylindrical reactor vessels (600 ml) with a rotating glass rod and Teflon impellers for mixing. A magnetic bar was attached at the bottom of the rod to couple it to an external stirring motor, and the rate of mixing was 60-80 rpm. The vessels were sealed using a silicon stopper with an outlet tube inserted through it for gas collection. The gas produced by the cells was collected in an inverted graduated glass cylinder by water displacement.
The direct involvement of PSII-catalyzed water oxidation activity by sulfur-deprived cells was further investigated using PAM fluorescence techniques.

Molecule | % SHAM inhibition (% AO) of respiration ([1]; During H2 production) | % SHAM inhibition (% AO) of respiration ([1]; End of H2 production) | % SHAM inhibition (% AO) of respiration ([1]; Start of H2 production phase) | % SHAM inhibition (% AO) of respiration ([1]; Start of anaerobic phase) | % SHAM inhibition (% AO) of respiration ([1]; Start of sulfur depletion) | decrease of the rate of H2 gas production [2]
O=C(NO)c1ccccc1O [SHAM, salicylic hydroxamic acid] | 38% | 100% | 13% | 0% | 25% | 
DCMU |  |  |  |  |  | 80%
